The numbers were not newly measured in patent US20040076646A1, “Haptenizing cancer cell components” (priority 2001, published 2004), which cites them from elsewhere.

The subject of this series is individuals / adult Americans.

Some results are limits rather than exact numbers.

For the substance urushiol, the “amount of urushiol sufficient to induce the rash response” value (some individuals, molecular traces) was ≤ 2 µg. Moreover, under “≦50 μg of purified material”, the “proportion of adult Americans who respond” value is 80-90%.
